Converted amounts (≈) assume the structure as drawn.
How the values were obtained:
[1] = target: T1, ERAP1 (Homo sapiens, UniProt Q9NZ08); experiment: Test of trimming of N-terminal amino acid by ERAP1 (Experimental Example 9, Examples 69-84); type: biochemical; conditions: MAGE-A10 254-262 peptide obtained by ERAP1 trimming; from HPLC AUC;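 further: peptide incubated with ERAP1 for 1 h before HPLC analysis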
Description: The peptides synthesized in Examples 69-84 were evaluated for N-terminal amino acid trimming efficiency using ERAP1. 50 μl of ERAP1 solution (10 μg/ml) in pH 8.0, 20 mM Tris.HCl-100 mM NaCl buffer (Tris.HCl buffer) was added to 142 μl of Tris.HCl buffer. 10 mM peptide solution in DMSO (2.0 μl) and 6.0 μL of DMSO were added to the aforementioned ERAP1 solution, and the mixture was blended well and stood at 30° C. […] The peptide obtained by trimming was chemically synthesized separately, and analyzed under similar conditions in the absence of the enzyme. […]
(§1) pump: UFLC manufactured by Shimadzu […]
(§2) solution: 0.1% TFA H2O(A)-0.1% TFA CH3CN(B) […]
(§3) detection wavelength: λ=220 nm gradient: concentration of SOLUTION B was raised from 10% to 50% from 0.0 min to 8.5 min

[2] = target: T1, ERAP1; experiment: Test of trimming of N-terminal amino acid by ERAP1 (Experimental Example 10, Examples 85-103); type: biochemical; conditions: MAGE-A10 254-262 peptide obtained by ERAP1 trimming; from HPLC AUC
Description: The peptides synthesized in Examples 85-103 were evaluated for N-terminal amino acid trimming efficiency using ERAP1. 50 μl of ERAP1 solution (10 μg/ml) in pH 8.0, 20 mM Tris.HCl-100 mM NaCl buffer (Tris.HCl buffer) was added to 142 μl of Tris.HCl buffer. 10 mM peptide solution in DMSO (2.0 μl) and 6.0 μL of DMSO were added to the aforementioned ERAP1 solution, and the mixture was blended well and stood at 30° C. […] The peptide to be obtained by trimming was chemically synthesized separately, and analyzed under similar conditions in the absence of the enzyme. The formation ratio of the peptide [MAGE-A10254-262 peptide ([…]) (SEQ ID NO: 19)] obtained by trimming was determined based on the obtained AUC, and is shown in Tables 45 and 46. […]
as §1, §2, §3

[3] = physchem
Description: To prepare a test solution, about 1 mg of a test product was measured and the isotonic buffer (0.5 mL) was added thereto. The prepared solution was shaken at room temperature for 90 min (shaking conditions: RECIPRO SHAKER SR-1N manufactured by TAITEC, Speed=8), centrifuged (15000 rpm, 5 min, room temperature), and the supernatant after centrifugation was used as a test solution.
About 1 mg of the test product was accurately measured, dissolved in 0.1% TFA water/acetonitrile=1/1, made the total amount 10 mL, and this was used as a standard solution of the test product.
The standard solution of the test product and the test solution are analyzed by HPLC (under the analysis conditions described in Table 34), and the solubility of the test product is calculated from the ratio of peak area compared to the standard solution.
column: Chemcopack Quicksorb (4.6 mmφ×150 mm, 5 μm)
manufactured by Chemco Scientific Co., Ltd.
mobile phase: SOLUTION A; 0.1% TFA water, SOLUTION B;
0.1% TFA acetonitrile solution
column temperature: room temperature
detection wavelength: UV 254 nm, 230 nm (2 wavelength detection)
sample injection volume: 10

[4] = target: T1, ERAP1; experiment: Time-course changes of trimming of N-terminal amino acid by ERAP1 (Experimental Example 2); type: biochemical; conditions: peptide obtained by trimming (SEQ ID NO: 53, 43 or 19), ERAP1 solution 0.5 mg/ml, room temperature
Description: 20 μl of ERAP1 solution (0.5 mg/ml) in Tris.HCl buffer was added to 172 μl of Tris.HCl buffer. 10 mM peptide solution in DMSO (8.0 μl) was added to the aforementioned ERAP1 solution, and the mixture was blended well and stood at room temperature. […]
pump: UFLC manufactured by Shimadzu column: Shim-pack XR-ODS 3.0 mmi.d.×75 mm solution: 0.05% TFA H2O(A)-0.05% TFA CH3CN(B) […]
detection wavelength: λ=220 nm gradient: Concentration of SOLUTION B was raised from 1.0% 70% from 0.0 min to 5.0 min […]
The peptide to be obtained by the trimming of the N-terminal amino acid(s) by ERAP1 is, […]

T1 sequence (Q9NZ08 whole entry): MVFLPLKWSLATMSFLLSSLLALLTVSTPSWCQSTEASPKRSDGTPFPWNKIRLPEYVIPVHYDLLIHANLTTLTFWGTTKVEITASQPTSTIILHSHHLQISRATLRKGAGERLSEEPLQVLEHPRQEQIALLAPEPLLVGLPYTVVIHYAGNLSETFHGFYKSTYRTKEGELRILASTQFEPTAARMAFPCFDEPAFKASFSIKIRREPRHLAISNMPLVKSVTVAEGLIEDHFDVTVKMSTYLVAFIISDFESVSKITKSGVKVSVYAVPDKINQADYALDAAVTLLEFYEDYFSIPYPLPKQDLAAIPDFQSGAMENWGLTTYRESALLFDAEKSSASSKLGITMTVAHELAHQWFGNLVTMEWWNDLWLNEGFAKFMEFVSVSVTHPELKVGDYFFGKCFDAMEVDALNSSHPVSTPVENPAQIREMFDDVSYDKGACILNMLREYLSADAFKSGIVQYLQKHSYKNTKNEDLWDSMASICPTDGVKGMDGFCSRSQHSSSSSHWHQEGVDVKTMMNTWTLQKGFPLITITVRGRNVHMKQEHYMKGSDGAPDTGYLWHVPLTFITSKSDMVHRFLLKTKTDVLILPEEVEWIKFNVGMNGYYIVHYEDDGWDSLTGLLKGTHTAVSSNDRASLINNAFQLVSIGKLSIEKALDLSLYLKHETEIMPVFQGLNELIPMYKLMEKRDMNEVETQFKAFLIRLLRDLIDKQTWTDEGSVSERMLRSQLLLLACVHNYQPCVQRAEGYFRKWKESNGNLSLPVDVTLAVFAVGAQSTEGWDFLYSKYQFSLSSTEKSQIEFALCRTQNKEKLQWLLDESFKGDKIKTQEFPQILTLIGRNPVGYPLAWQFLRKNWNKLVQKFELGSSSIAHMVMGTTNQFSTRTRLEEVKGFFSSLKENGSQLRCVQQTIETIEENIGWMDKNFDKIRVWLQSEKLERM

Molecule	formation rate of GLYDGMEHL (SEQ ID NO: 19) [1] [%]	formation rate of GLYDGMEHL (SEQ ID NO: 19) [2] [%]	also measured
H-CSGLYDGMEHL-OH [Example 84]	1.1		
H-RCGLYDGMEHL-OH [Example 93]		0.0	
H-HCGLYDGMEHL-OH [Example 98]		0.0	
CC[C@H](C)[C@H](NC(=O)[C@@H](N)CCCCN)C(=O)N[C@@H](Cc1ccccc1)C(=O)NCC(=O)N[C@@H](CO)C(=O)N[C@@H](CC(C)C)C(=O)N[C@@H](C)C(=O)N[C@@H](Cc1ccccc1)C(=O)N[C@@H](CC(C)C)C(=O)O [SEQ ID NO: 53, reference compound]			solubility thermodynamic at 90 min ([3]; pH 6): 100 µg/mL (≈ 100 µM); solubility thermodynamic at 90 min ([3]; pH 7.4): 123 µg/mL (≈ 124 µM)
H-SCGLYDGMEHL-OH [Example 87]		22.2	
H-GCGLYDGMEHL-OH [Example 97]		10.4	
H-ICGLYDGMEHL-OH [Example 99]		0.0	
H-CHGLYDGMEHL-OH [Example 72]	0.0		
H-CRGLYDGMEHL-OH [Example 81]	0.0		
H-KCGLYDGMEHL-OH [Example 101]		0.0	
H-CIGLYDGMEHL-OH [Example 73]	0.4		
H-CVGLYDGMEHL-OH [Example 80]	0.0		
H-MCGLYDGMEHL-OH [Example 102]		5.8	
H-CEGLYDGMEHL-OH [Example 70]	6.2		
H-TCGLYDGMEHL-OH [Example 88]		7.3	
H-NCGLYDGMEHL-OH [Example 94]		18.2	
H-CLGLYDGMEHL-OH [Example 27]			formation rate(%) 1 hr later [4]: 58.3%; formation rate(%) 2 hr later [4]: 94.9%; formation rate(%) 4 hr later [4]: 88.4%; formation rate(%) 8 hr later [4]: 88.3%
H-QCGLYDGMEHL-OH [Example 85]		3.6	
CC[C@H](C)[C@H](NC(=O)[C@H](CCCCN)NC(=O)[C@@H](N)CSSC[C@H](N)C(=O)NCC(=O)N[C@@H](CC(C)C)C(=O)N[C@@H](Cc1ccc(O)cc1)C(=O)N[C@@H](CC(=O)O)C(=O)NCC(=O)N[C@@H](CCSC)C(=O)N[C@@H](CCC(=O)O)C(=O)N[C@@H](Cc1c[nH]cn1)C(=O)N[C@@H](CC(C)C)C(=O)O)C(=O)N[C@@H](Cc1ccccc1)C(=O)NCC(=O)N[C@@H](CO)C(=O)N[C@@H](CC(C)C)C(=O)N[C@@H](C)C(=O)N[C@@H](Cc1ccccc1)C(=O)N[C@@H](CC(C)C)C(=O)O [Example 29]			solubility thermodynamic at 90 min ([3]; pH 6): 170 µg/mL (≈ 76.1 µM); solubility thermodynamic at 90 min ([3]; pH 7.4): > 1000 µg/mL
H-CYGLYDGMEHL-OH [Example 79]	0.0		
H-CMGLYDGMEHL-OH [Example 28]			formation rate(%) 1 hr later [4]: 90.6%; formation rate(%) 2 hr later [4]: 103%; formation rate(%) 4 hr later [4]: 96.0%; formation rate(%) 8 hr later [4]: 101%
H-CDGLYDGMEHL-OH [Example 83]	25.0		

Molecule	formation rate of GLYDGMEHL (SEQ ID NO: 19) [1] [%]	formation rate of GLYDGMEHL (SEQ ID NO: 19) [2] [%]	also measured
H-CWGLYDGMEHL-OH [Example 78]	0.0		
H-CNGLYDGMEHL-OH [Example 82]	82.2		
H-CGGLYDGMEHL-OH [Example 71]	0.0		
H-CAGLYDGMEHL-OH [Example 26]			formation rate(%) 1 hr later [4]: 87.8%; formation rate(%) 2 hr later [4]: 99.4%; formation rate(%) 4 hr later [4]: 103%; formation rate(%) 8 hr later [4]: 97.5%
H-CAVLQELNVTV-OH [Example 22]			formation rate(%) 1 hr later [4]: 46.1%; formation rate(%) 2 hr later [4]: 49.9%; formation rate(%) 4 hr later [4]: 51.3%; formation rate(%) 8 hr later [4]: 53.5%
H-CTGLYDGMEHL-OH [Example 77]	89.4		
H-DCGLYDGMEHL-OH [Example 95]		3.2	
H-VCGLYDGMEHL-OH [Example 91]		2.4	
H-YCGLYDGMEHL-OH [Example 90]		5.7	
H-CKGLYDGMEHL-OH [Example 74]	0.0		
H-CMVLQELNVTV-OH [Example 24]			formation rate(%) 1 hr later [4]: 28.7%; formation rate(%) 2 hr later [4]: 34.5%; formation rate(%) 4 hr later [4]: 36.5%; formation rate(%) 8 hr later [4]: 36.8%
H-PCGLYDGMEHL-OH [Example 86]		19.2	
H-FCGLYDGMEHL-OH [Example 103]		17.6	
CC[C@H](C)[C@H](NC(=O)[C@H](CCCCN)NC(=O)[C@@H](N)CSSC[C@H](N)C(=O)N[C@H](C)C(=O)N[C@@H](CCCCN)C(=O)N[C@@H](Cc1ccccc1)C(=O)N[C@H](C(=O)N[C@@H](C)C(=O)N[C@@H](C)C(=O)N[C@@H](Cc1c[nH]c2ccccc12)C(=O)N[C@H](C(=O)N[C@@H](CC(C)C)C(=O)N[C@@H](CCCCN)C(=O)N[C@@H](C)C(=O)N[C@@H](C)C(=O)N[C@H](C)C(=O)O)[C@@H](C)O)C(C)C)C(=O)N[C@@H](Cc1ccccc1)C(=O)NCC(=O)N[C@@H](CO)C(=O)N[C@@H](CC(C)C)C(=O)N[C@@H](C)C(=O)N[C@@H](Cc1ccccc1)C(=O)N[C@@H](CC(C)C)C(=O)O [Example 112]			solubility thermodynamic at 90 min ([3]; pH 6): < 1 µg/mL; solubility thermodynamic at 90 min ([3]; pH 7.4): 2 µg/mL (≈ 0.785 µM)
H-ACGLYDGMEHL-OH [Example 92]		5.2	
H-WCGLYDGMEHL-OH [Example 89]		0.0	
H-ECGLYDGMEHL-OH [Example 96]		2.9	
H-CQGLYDGMEHL-OH [Example 69]	56.9		
H-CFGLYDGMEHL-OH [Example 75]	0.0		
H-CLVLQELNVTV-OH [Example 23]			formation rate(%) 1 hr later [4]: 31.1%; formation rate(%) 2 hr later [4]: 36.9%; formation rate(%) 4 hr later [4]: 38.1%; formation rate(%) 8 hr later [4]: 36.1%
H-LCGLYDGMEHL-OH [Example 100]		0.0	
H-CPGLYDGMEHL-OH [Example 76]	0.0		

From patent US10588952B2, “Conjugate vaccine using trimming function of ERAP1” (SUMITOMO DAINIPPON PHARMA CO., LTD., priority 2013, dated 2020)
